Assay [1] concerns the target Eukaryotic translation initiation factor 4H (Homo sapiens, UniProt Q15056). Description: eIF4H inhibition in translation initiation, SAR follow-up (AID 435011). The assay is classed as functional.
The target of assay [2] is Polyadenylate-binding protein 1 (Homo sapiens, UniProt P11940). Description: PABP inhibition in translation initiation, SAR follow-up (AID 435018). The format is functional.
Assay [3] addresses T1, Protein phosphatase methylesterase 1 (Homo sapiens, UniProt Q9Y570). Description: PME-1 inhibitor potency by in-gel ABPP, dose response, selectivity assay for PME-1 inhibitor project, cell lysate, mouse brain cytosol, FP-rhodamine, panel member PME-1 Assay Panel member description: Inhibition of endogenously expressed PME-1 (AID 2366).
Assay [4] has as its target T1, Protein phosphatase methylesterase 1. The experiment in a line: Late stage results from the probe development effort to identify inhibitors of the protein methylesterase PME-1: Gel-based Activity-Based Protein Profiling (ABPP) IC50: Purified enzyme. The format is functional.
For assay [5], the system named is Saccharomyces cerevisiae. The experiment in a line: NALP1 inhibitor project selectivity study, Caspase-1/ASC signal blockade IC50 in S. cerevisiae (AID 488863). The assay is classed as functional, organism-based.
In assay [6] the target is NACHT, LRR and PYD domains-containing protein 1 (Homo sapiens, UniProt Q9C000). The experiment in a line: NALP1 inhibitors in yeast, dose response, luminescent (AID 488860). The assay is classed as functional.
NACHT, LRR and PYD domains-containing protein 1, sequence (Q9C000 1-1212 limits assumed): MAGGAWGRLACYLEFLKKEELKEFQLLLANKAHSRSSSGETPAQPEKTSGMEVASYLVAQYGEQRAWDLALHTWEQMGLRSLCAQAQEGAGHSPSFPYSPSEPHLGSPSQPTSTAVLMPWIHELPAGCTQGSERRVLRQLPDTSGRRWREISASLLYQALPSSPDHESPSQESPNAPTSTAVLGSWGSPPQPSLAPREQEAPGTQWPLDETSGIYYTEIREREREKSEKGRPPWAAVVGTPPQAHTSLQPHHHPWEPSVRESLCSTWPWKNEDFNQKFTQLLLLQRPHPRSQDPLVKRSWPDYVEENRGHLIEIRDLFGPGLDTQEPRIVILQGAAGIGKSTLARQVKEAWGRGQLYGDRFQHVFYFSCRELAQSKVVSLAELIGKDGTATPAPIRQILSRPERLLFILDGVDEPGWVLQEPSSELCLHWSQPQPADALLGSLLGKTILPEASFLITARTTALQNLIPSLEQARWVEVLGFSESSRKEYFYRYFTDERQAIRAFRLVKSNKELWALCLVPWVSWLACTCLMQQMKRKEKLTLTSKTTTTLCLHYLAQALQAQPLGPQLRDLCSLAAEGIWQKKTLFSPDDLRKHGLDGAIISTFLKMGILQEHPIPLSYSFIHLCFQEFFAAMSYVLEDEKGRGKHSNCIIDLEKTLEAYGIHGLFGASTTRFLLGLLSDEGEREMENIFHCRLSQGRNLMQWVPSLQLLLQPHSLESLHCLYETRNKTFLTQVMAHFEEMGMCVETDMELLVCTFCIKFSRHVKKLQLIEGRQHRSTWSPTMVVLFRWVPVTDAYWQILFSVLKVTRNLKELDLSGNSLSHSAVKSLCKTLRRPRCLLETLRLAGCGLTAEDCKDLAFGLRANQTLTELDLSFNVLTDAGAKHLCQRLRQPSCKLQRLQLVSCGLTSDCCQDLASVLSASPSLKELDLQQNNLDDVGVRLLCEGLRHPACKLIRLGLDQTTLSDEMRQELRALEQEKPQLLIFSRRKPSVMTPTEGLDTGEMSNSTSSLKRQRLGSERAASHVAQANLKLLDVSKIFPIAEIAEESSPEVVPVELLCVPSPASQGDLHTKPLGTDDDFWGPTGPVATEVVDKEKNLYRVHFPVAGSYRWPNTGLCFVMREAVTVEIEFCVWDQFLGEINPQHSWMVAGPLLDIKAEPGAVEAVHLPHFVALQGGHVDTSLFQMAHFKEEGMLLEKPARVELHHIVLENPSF
NACHT, LRR and PYD domains-containing protein 1, sequence (Q9C000 1213-1473 limits assumed): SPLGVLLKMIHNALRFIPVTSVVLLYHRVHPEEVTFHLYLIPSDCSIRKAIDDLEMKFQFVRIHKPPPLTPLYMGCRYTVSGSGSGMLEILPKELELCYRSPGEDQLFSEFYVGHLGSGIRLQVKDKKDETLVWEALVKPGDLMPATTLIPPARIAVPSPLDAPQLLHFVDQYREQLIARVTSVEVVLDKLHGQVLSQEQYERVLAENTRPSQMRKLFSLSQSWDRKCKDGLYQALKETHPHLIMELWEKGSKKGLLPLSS
For assay [7], the target named is Female germline-specific tumor suppressor gld-1 (Caenorhabditis elegans, UniProt Q17339). The experiment in a line: inhibitors of GLD-1 binding to TGE RNA, dose response, biochemical, fluorescence polarization, C. elegans (AID 2802).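 Also: fluorescence polarization of labeled TGE RNA bound by purified gld-1 protein.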 A general note: In fluorescence polarisation assays a small probe gives low polarisation when free and higher when bound to something large.

For assay [8], the target named is Protein Rev (Human immunodeficiency virus type 1 group M subtype B (isolate HXB2)(HIV-1), UniProt P04618). The experiment in a line: inhibitors of Rev binding to RRE RNA, dose response, biochemical, fluorescence polarization, HIV-1 (AID 434976). Details: species or system Human immunodeficiency virus 1.
Assay [9] has as its target X-box-binding protein 1 (Homo sapiens, UniProt P17861). The assay is classed as functional, Cricetulus griseus.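 Also: confirmatory dose-response counter-screen serving a CHOP assay.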
The target in assay [10] is T2, Fatty acid synthase (Homo sapiens, UniProt P49327). Description: FAS thioesterase domain inhibitors, dose response, biochemical, endpoint fluorescence intensity, uHTS hits (AID 624327).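 Also: fluorescence from hydrolysis of an O-methyl fluorescein acyl ester substrate by the enzyme.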 The format is functional.
T2 sequence (P49327 whole entry, the tested form may be a part): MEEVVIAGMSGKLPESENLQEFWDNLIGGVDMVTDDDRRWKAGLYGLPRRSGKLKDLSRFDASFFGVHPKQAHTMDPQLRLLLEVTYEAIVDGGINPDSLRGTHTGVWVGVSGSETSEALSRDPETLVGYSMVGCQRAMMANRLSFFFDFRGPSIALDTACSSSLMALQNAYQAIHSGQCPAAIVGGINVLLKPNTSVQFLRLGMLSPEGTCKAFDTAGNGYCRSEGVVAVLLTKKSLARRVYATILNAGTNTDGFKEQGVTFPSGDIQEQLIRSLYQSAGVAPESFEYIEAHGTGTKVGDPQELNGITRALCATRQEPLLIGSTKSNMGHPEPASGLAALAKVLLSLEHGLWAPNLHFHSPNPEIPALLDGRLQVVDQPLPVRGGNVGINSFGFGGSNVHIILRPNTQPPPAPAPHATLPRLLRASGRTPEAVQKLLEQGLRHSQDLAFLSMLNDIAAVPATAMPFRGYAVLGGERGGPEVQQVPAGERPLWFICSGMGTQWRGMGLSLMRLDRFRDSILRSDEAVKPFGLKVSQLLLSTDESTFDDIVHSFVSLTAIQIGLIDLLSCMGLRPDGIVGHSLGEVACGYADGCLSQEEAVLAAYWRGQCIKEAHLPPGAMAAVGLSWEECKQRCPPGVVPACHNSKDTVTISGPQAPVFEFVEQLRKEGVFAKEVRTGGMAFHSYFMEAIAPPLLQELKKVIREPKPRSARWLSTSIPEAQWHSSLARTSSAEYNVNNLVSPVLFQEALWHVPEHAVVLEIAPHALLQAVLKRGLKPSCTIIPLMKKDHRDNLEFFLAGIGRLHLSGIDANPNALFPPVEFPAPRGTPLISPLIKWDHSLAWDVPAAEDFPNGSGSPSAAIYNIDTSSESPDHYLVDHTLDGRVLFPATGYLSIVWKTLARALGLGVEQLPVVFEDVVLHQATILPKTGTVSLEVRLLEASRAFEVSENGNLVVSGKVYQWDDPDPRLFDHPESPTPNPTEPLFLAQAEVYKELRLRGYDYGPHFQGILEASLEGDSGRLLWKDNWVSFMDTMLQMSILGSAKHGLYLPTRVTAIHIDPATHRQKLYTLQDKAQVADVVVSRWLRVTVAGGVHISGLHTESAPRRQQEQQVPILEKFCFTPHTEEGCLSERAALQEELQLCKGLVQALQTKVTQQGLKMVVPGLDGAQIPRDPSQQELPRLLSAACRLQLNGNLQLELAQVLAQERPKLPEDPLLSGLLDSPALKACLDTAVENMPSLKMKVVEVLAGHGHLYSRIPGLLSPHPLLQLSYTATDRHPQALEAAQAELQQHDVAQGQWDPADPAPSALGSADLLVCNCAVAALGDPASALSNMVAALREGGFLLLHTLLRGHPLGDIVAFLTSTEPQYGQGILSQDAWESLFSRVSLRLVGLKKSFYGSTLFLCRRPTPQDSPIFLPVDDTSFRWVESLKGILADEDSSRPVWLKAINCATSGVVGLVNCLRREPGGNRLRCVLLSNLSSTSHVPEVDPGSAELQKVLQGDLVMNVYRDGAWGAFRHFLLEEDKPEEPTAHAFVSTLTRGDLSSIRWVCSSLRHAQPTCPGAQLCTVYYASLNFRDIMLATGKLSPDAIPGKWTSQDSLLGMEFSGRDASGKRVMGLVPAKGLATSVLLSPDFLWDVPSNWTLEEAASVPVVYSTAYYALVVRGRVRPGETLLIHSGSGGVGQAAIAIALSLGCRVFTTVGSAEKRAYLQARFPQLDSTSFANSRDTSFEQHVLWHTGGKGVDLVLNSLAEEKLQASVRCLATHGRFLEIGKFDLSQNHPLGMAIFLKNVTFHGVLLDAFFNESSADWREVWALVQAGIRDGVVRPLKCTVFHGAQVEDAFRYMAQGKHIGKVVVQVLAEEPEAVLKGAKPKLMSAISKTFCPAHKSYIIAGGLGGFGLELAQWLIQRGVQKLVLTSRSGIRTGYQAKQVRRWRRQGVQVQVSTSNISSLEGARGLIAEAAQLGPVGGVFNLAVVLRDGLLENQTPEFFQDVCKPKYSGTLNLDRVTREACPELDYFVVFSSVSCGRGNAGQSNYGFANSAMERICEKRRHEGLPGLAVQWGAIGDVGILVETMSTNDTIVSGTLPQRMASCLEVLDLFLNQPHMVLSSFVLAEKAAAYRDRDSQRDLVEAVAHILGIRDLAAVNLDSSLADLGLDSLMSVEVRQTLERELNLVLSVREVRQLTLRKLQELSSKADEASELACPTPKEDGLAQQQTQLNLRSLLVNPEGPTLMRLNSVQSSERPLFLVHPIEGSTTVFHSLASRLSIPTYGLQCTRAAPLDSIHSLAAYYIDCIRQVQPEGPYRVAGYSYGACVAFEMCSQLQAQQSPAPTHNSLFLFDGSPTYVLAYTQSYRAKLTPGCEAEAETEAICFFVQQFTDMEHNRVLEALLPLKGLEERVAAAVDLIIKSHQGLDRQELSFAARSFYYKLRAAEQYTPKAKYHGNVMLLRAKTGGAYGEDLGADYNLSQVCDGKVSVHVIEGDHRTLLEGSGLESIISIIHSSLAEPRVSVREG
Assay [11] concerns the target T2, Fatty acid synthase. Description: FAS thioesterase domain inhibitors, dose response, biochemical, kinetic fluorescence intensity (AID 624326).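 Also: rate of fluorescence rise from hydrolysis of a fluorogenic O-methyl fluorescein ester substrate.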 The assay is classed as functional.
The target of assay [12] is T3, Short transient receptor potential channel 4 (Mus musculus, UniProt Q9QUQ5).
T3 sequence (Q9QUQ5 whole entry): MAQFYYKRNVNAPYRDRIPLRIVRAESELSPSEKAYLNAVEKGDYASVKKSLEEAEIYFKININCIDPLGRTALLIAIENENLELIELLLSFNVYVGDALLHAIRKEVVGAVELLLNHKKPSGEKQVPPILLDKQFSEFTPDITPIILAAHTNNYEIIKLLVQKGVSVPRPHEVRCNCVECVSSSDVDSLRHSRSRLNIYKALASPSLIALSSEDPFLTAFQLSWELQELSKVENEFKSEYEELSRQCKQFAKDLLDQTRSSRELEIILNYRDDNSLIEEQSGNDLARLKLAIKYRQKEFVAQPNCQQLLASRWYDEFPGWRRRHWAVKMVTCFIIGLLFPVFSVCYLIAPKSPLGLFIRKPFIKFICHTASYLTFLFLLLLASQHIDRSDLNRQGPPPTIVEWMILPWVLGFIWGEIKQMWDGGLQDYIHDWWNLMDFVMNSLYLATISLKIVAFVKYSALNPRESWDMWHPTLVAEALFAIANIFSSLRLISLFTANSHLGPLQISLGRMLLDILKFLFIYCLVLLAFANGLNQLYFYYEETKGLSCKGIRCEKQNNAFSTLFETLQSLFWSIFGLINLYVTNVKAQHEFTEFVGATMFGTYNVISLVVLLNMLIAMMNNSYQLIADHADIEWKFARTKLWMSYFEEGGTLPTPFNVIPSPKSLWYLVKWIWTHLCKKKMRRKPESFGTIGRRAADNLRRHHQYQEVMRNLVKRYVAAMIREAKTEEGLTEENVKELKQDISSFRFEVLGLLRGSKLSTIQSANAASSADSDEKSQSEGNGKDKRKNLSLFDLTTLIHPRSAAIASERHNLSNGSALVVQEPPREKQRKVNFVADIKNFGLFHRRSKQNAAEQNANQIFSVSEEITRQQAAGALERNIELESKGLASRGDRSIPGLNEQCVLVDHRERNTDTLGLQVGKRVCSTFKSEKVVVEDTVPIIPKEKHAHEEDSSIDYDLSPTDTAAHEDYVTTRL
Description: TRPC4 positive allosteric modulators, dose response, cell-based, HEK293 TRPC4/mu-opioid, Fluo-4 calcium, EC20 DAMGO (AID 434941).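 Also: HEK293 cells coexpressing TRPC4 and mu opioid receptor stimulated by EC20 DAMGO.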 The format is functional.

Activity calls are given as the source filed them. Some results are limits rather than exact numbers.

T1 sequence (Q9Y570 whole entry): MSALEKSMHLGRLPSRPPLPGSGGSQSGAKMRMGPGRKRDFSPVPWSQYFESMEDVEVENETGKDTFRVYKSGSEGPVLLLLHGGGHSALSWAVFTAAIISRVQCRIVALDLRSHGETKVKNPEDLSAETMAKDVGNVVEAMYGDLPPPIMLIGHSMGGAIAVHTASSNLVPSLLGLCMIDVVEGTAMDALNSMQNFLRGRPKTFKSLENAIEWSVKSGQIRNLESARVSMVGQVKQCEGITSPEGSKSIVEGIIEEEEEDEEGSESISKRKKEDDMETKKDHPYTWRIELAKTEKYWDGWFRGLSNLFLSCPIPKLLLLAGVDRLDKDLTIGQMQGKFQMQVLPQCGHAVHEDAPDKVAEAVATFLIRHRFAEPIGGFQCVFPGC
Polyadenylate-binding protein 1, sequence (P11940 whole entry): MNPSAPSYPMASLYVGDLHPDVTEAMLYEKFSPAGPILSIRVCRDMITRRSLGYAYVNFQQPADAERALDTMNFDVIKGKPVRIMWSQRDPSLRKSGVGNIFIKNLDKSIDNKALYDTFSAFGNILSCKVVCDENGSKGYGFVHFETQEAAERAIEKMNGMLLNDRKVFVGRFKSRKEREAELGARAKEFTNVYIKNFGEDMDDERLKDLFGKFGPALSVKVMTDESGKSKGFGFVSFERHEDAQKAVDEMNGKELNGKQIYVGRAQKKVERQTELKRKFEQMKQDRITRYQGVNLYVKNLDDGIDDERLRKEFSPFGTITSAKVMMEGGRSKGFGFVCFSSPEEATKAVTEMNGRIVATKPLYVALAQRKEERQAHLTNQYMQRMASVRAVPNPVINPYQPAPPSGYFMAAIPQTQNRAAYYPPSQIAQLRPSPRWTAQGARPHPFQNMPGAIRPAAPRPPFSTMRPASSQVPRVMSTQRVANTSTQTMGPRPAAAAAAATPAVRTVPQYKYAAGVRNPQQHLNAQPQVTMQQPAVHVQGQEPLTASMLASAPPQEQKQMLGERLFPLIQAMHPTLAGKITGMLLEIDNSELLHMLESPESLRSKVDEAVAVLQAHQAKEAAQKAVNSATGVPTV

Turning to `COc1cccc(N=C2SC(C(=O)Nc3ccc(F)cc3)CC(=O)N2C)c1` (configuration not stated), the IC50 in [1] and in [2] was > 100 µM (inactive) each time.
`CS(=O)(=O)/C(=C/c1cccn1S(=O)(=O)c1ccccc1)CN`: the IC50 is > 20 µM (inactive) in assay [3] and > 20 µM (not active) in assay [4].
Take `CCCOc1ccccc1NC(=O)/C=C/C(N)=O`: the IC50 in assay [5] was 5.33 µM (active); in assay [6], 8.5 µM (active).
As to `CC(OC(=O)/C(C#N)=C/c1ccc(N(C)C)cc1)C(=O)NCc1ccco1` (configuration not stated), the 50% inhibitory concentration (IC50) was 6.63 µM (active) in assay [7] and > 75.5 µM (not active) in assay [8].
Take `CCCCCC1CC(CC(=O)Nc2ccc([N+](=O)[O-])cc2)C(=O)O1` (configuration not stated): in assay [9], the “Absolute IC50 (XBP1)” value is less than 10 µM. For the same compound, the IC50 in assay [10] is 16.8 µM (active); in assay [11], 12.5 µM (active).
For the compound `Cc1ccc(Cn2c(=N)c(C(=O)NC3CCCC3)cc3c(=O)n4ccccc4nc32)cc1`, in assay [12], the EC50 is 2.11 µM (active).

Broadly, the IC50 is the concentration at which inhibition is half-maximal. As usually defined, the EC50 is the concentration giving half of the maximal effect.

These data come from ChEMBL document CHEMBL1201862, “PubChem BioAssay data set” (2004).
